Results on two molecules are retold here after patent US20250171821A1, “HIF-1 ACTIVATORS AND USES THEREOF” (Ramot at Tel-Aviv University Ltd., priority 2022, published 2025).

Assay [1] deals with ischemic anastomoses. The following applies: cited from earlier work.
For assay [2], the system named is mice. Particulars: after dextran sulfate sodium-induced intestinal fibrosis; cited from earlier work.
Assay [3] has as its system MG-63 cells. The assay is described as follows: Picrosirius red staining of collagen fibers in MG-63 cells. The following applies: 7 days, osteogenic differentiation medium plus peptide. The format is cell-based, human. The method, then: (§1) The cultivation of MG-63 was performed in α-MEM growth medium (Sartorius). Osteogenic differentiation was performed by plating 20,000 cells/well into a sterile 24-well plate. Cells were left to adhere for 1 day and then switched to the osteogenic medium consisting of a minimum essential medium alpha (α-MEM) supplemented with 10% heat-inactivated FBS, 2 mM L-glutamine, 100 U/mL penicillin, 100 μg/mL streptomycin, 50 μM ascorbate-2-phosphate, and 10 mM β-glycerophosphate. Medium was changed every 2-3 days together with peptide supplementation. Seven to twenty-eight days after induction of differentiation, the production of extracellular calcified mineral matrix was visualized by Alizarin Red staining (Sigma) and Picrosirius Red (Scytek).
To visualize the extent of ECM formation, Picrosirius red dye was used to stain Collagen-I and Collagen-III. Treated cells were fixed with 4% PFA, washed with PBS and dried at 37° C. or at room temperature (RT) for overnight incubation. Then, the cells were stained with 400 μL of Sirius Red dye (0.1% in saturated picric acid) for 1 hour with mild shaking. The stained cell layers were then extensively washed with 0.01 N HCl to remove all non-bounded dye. After rinsing, photographs were taken under confocal microscope using polarized light.
Evaluation of Collagen fibers in MG-63 cells upon Def16-EPAS1 treatment—To evaluate the variation in Collagen fiber levels between normal MG-63 cells and MG-63 cells treated with the Def16-EPAS1 peptide, cells were supplemented to a 7-day incubation period with osteogenic differentiation medium (which includes 50 μg/mL ascorbic acid and 10 mM β-glycerophosphate), along with the addition of Def16-EPAS1 peptide. Collagen fibers were highlighted/stained by Picro-Sirius Red staining according to the manufacturer's instructions (FIG. 12). The PSR staining allows to clearly distinguish between Collagen-I and III fibers in cell culture. In the evaluation of polarizing colors of collagens fibers, Collagen-I and III were polarized with 488 nm and 647 nm wavelength, respectively, and visualized with the confocal microscope.

Assay [4] concerns MG-63 cells. The assay is described as follows: Alizarin Red S staining of mineralization in MG-63 cells. The format is cell-based, human. The method, then:
as §1
To visualize calcium deposition upon osteogenic differentiation, an Alizarin-red-S (Sigma) stock solution of 40 mM was used. Cells were washed three times with PBS and fixed in 1 mL of 4% PFA for 20 minutes at room temperature (RT). After fixation, cells were rinsed with double distilled water (DDW) and stained for 10 minutes in 1 mL Alizarin-red-S stock solution under continuous rotation. To diminish unspecific staining, cells were washed extensively three times with PBS. Stained samples were stored at 4° C. covered with PBS. […]

The test system of assay [5] is Bovine Dermal Fibroblast. In words: Collagen-I immunofluorescence in bovine dermal fibroblasts. The format is cell-based. Particulars: 48 hours. The method, then:
For microscopy images, cells were cultured in a 24-well plate and incubated with medium supplemented with the indicated concentrations of the treating entity (e.g., peptides or DFO) at 37° C. under 5% CO2. Cells were then washed additional three times with cold phosphate-buffered saline (PBS), following a 20 minute fixation in a 4% paraformaldehyde (PFA) in PBS and extensively washed three times with PBS to remove the PFA, followed by a 20 minute wash with blocking and penetration solution (PBS with 0.1% Triton X-100 and 2% BSA). Fixed cells were incubated with antibodies for 1 hour at 25° C., washed, and developed together with fluorescence-tagged secondary antibodies (Alexa 488 and 647, Abcam). Cell nuclei were stained with 1 mg/mL 4′,6-diamidino-2-phenylindole (DAPI Staining Solution ab228549, Abcam). Images were taken using a ZEISS LSM 900 in confocal mode, using Zen 3.1. Fluorescence readouts were obtained at ex/em of 358/461, 495/519 nm, and 652/668 nm for blue, green, and red, respectively.
Effect of Def16-EPAS1 on Collagen accumulation in Bovine Dermal Fibroblast—To test HIF mimicking peptide and its effect on Collagen accumulation in additional mammalian cells, the present inventors have examined the effect of the Def16-EPAS1 peptide on Bovine Dermal Fibroblast. […]

“Also recorded” adds a separate entry of the source.

As to `COC(=O)CNC(=O)C(=O)OC` [DMOG], the levels of collagen result in assay [1] is “increased levels of collagen”. Also, the collagen deposition entry in assay [2] was “significant decrease in collagen deposition”.
With “Def16-EPAS1: GRCRGFRRRCFCTTHCELDLETLAPYIPMDGEDFQL (SEQ ID NO: 3): Def16 cell penetrating sequence fused to the EPAS1 peptide (Def16-EPAS1; MOD_RES 1 Can be FITC-labeled; MOD_RES 3 Can be FITC-labeled; MOD_RES 10 Can be FITC-labeled; MOD_RES 12 Can be FITC-labeled; MOD_RES 16..17 Can be FITC-labeled; MOD_RES 19 Can be FITC-labeled; MOD_RES 21 Can be FITC-labeled; MOD_RES 30 Can be FITC-labeled; MOD_RES 32..33 Can be FITC-labeled; MOD_RES 36 Can be FITC-labeled)”, in assay [3], the Collagen-I fibers entry was “over-production” and the Collagen-III fibers entry is listed as “over-production”. For the same molecule, in assay [3] (listed as DEF16-EPAS1), the Collagen-I fibers entry was “enhanced levels” and the Collagen-III fibers result is listed as “enhanced levels”. In addition, the “deposition of calcium (mineralized nodules)” value in assay [4] (5 μM or 20 μM peptide, 7 days, osteogenic differentiation medium) is “strong induction of deposition of calcium; also recorded: Typical mineralized nodules were observed”. Further, the “mineralizing matrix formation (Alizarin Red S and Picrosirius Red)” value in assay [4] (10 μM peptide, 7, 14, 21 and 28 days, differentiation medium) was “form a mineralizing matrix”. For the same molecule, the Collagen fibril morphology entry in assay [5] (higher peptide concentrations) is “thick fibril bundles of Collagen were observed”. The “Collagen-I levels compared to baseline of nontreated cells” value in assay [5] (peptide concentration above 10 μM) is given as “more than 2 fold”.
